≈ marks a conversion by molar mass, not a printed value. Counter-ions that a name gives are not always drawn. Like-named read-outs stand apart in the source and are kept apart here.
What was measured:
Format in all cases: cell-based
[1] = system: Staphylococcus epidermidis IAM 1296; experiment: MIC, Experiment 1; details: IAM1296, S. epidermidis IAM 1296, Gram +, read-out: Min. inhib. concentr. (MIC)
Description: The compounds of the present invention ([…] and Q) were each dissolved in dimethylsulfoxide to prepare a solution of 5000 μg/ml in concentration. The compounds of the present invention (I, J and K) and the known compound (Y) were each dissolved in sterilized distilled water to prepare a solution of 5000 μg/ml in concentration. […] The test was carried out by a method as appointed by Japan Society of Chemotherapy [cf. Chemotherapy, 29, 76-79 (1981), TOKYO]. As to Streptococcus pneumoniae and Streptococcus pyogenes, Brain heart infusion broth (manufactured by DIFCO) was used as the medium for the preculture thereof, and a heart infusion agar medium containing 5% defibrinated horse blood (manufactured by Nissui Seiyaku K. K., Japan) was used as the medium for the measurement of minimum inhibitory concentration (MIC). As to other microorganisms, a sensitivity test broth (manufactured by Nissui Seiyaku K. K.) was used as the medium for the preculture thereof, and a sensitivity test agar medium (manufactured by Nissui Seiyaku K. K.) was used as the medium for the measurement of MIC.

[2] = system: clinically isolated Staphylococcus aureus; experiment: In vitro antibacterial activity against clinical isolates, Experiment 2; details: for MIC50: 50% of strains, read-out: MIC50
Method in brief: (§1)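 Clinical isolates collected Nov. 1988 to Jun. 1989 were precultured in sensitivity test broth. MIC was determined on sensitivity test agar. Compound standard solution was 1000 μg/ml (stock) in sterilized distilled water.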

[3] = system: clinically isolated Enterococcus faecalis; experiment: as above
Method in brief: as §1

[4] = system: clinically isolated Enterococcus faecium; experiment: as above
Method in brief: as §1

[5] = 25 clinical strains S. aureus incl. 16 methicillin resistant
[6] = 25 clinical strains S. aureus incl. 16 methicillin resistant, 90% of strains, read-out: MIC90
[7] = 25 clinical strains E. faecalis
[8] = 25 clinical strains E. faecalis, 50% of strains, read-out: MIC50
[9] = 25 clinical strains E. faecalis, 90% of strains, read-out: MIC90
[10] = 25 clinical strains E. faecium, 90% of strains, read-out: MIC90

Structure (SMILES) | MIC [1] [µg/mL] | MIC [2, 5] [µg/mL] | MIC50 [2, 5] [µg/mL] | MIC90 [2, 6] [µg/mL] | MIC [3, 7] [µg/mL] | MIC50 [3, 8] [µg/mL] | MIC90 [3, 9] [µg/mL] | MIC50 [4] [µg/mL] | MIC ([4]; 25 clinical strains E. faecium) [µg/mL] | MIC90 [4, 10] [µg/mL] | MIC50 [3] [µg/mL] | MIC90 [2] [µg/mL] | MIC90 [3] [µg/mL] | MIC90 [4] [µg/mL]
CN1Cc2csc3c(C(=O)O)c(=O)c4cc(F)c(N5CCOC(CCl)C5)c1c4n23 (centres unmarked) [Compound (D), 9,1-(Methylimino)methano-7-fluoro-8-(2-chloromethylmorpholino)-5-oxo-5H-thiazolo[3,2-a]quinoline-4-carboxylic acid] | 0.025 (≈ 0.0571 µM) | 0.006 to 0.2 (≈ 0.0137 to 0.457 µM) | 0.013 (≈ 0.0297 µM) | 0.2 (≈ 0.457 µM) | 0.05 to 3.13 (≈ 0.114 to 7.15 µM) | 0.2 (≈ 0.457 µM) | 1.56 (≈ 3.56 µM) | 0.39 (≈ 0.891 µM) | 0.05 to 3.13 (≈ 0.114 to 7.15 µM) | 3.13 (≈ 7.15 µM) | – | – | – | –
CN1Cc2csc3c(C(=O)O)c(=O)c4cc(F)c(N5CCC(=O)CC5)c1c4n23 [Compound (G), 9,1-(Methylimino)methano-7-fluoro-8-(4-oxopiperidino)-5-oxo-5H-thiazolo[3,2-a]quinoline-4-carboxylic acid] | 0.013 (≈ 0.0324 µM) | 0.006 to 0.39 (≈ 0.0149 to 0.972 µM) | ≤ 0.006 | 0.2 (≈ 0.498 µM) | 0.025 to 1.56 (≈ 0.0623 to 3.89 µM) | 0.05 (≈ 0.125 µM) | 1.56 (≈ 3.89 µM) | 0.39 (≈ 0.972 µM) | 0.025 to 3.13 (≈ 0.0623 to 7.8 µM) | 3.13 (≈ 7.8 µM) | – | – | – | –
CN1Cc2csc3c(C(=O)O)c(=O)c4cc(F)c(N5CCC(N(C)C)CC5)c1c4n23 [Compound (H), 9,1-(methylimino)methano-7-fluoro-8-(4-dimethylaminopiperidino)-5-oxo-5H-thiazolo[3,2-a]quinoline-4-carboxylic acid] | 0.2 (≈ 0.465 µM) | 0.05 to 3.13 (≈ 0.116 to 7.27 µM) | 0.1 (≈ 0.232 µM) | 3.13 (≈ 7.27 µM) | 0.2 to 6.25 (≈ 0.465 to 14.5 µM) | – | 3.13 (≈ 7.27 µM) | 1.56 (≈ 3.62 µM) | 0.2 to 25 (≈ 0.465 to 58.1 µM) | 12.5 (≈ 29 µM) | 0.39 (≈ 0.906 µM) | – | – | –
CN1Cc2csc3c(C(=O)O)c(=O)c4cc(F)c(N5CCN(C)C(CO)C5)c1c4n23 (centres unmarked) [Compound (I), 9,1-(Methylimino)methano-7-fluoro-8-(3-hydroxymethyl-4-methyl-1-piperazinyl)-5-oxo-5H-thiazolo-[3,2-a]quinoline-4-carboxylic acid hydrochloride] | 0.2 | 0.1 to 12.5 | 0.2 | – | 0.2 to 12.5 | – | 12.5 | 3.13 | 0.2 to 25 | 12.5 | 0.39 | 6.25 | – | –
CN1Cc2csc3c(C(=O)O)c(=O)c4cc(F)c(N5CCN(C)C(CF)C5)c1c4n23 (centres unmarked) [Compound (K), 9,1-(methylimino)methano-7-fluoro-8-(3-fluoromethyl-4-methyl-1-piperazinyl)-5-oxo-5H-thiazolo[3,2-a]quinoline-4-carboxylic acid hydrochloride] | 0.1 | 0.025 to 1.56 | 0.05 | 1.56 | 0.2 to 6.25 | – | – | 1.56 | 0.2 to 12.5 | 12.5 | 0.39 | – | 6.25 | –
CN1Cc2csc3c(C(=O)O)c(=O)c4cc(F)c(N5CCC(O)CC5)c1c4n23 [Compound (L), 9,1-(Methylimino)methano-7-fluoro-8-(4-hydroxypiperidino)-5-oxo-5H-thiazolo[3,2-a]quinoline-4-carboxylic acid] | 0.013 (≈ 0.0322 µM) | 0.006 to 0.39 (≈ 0.0149 to 0.967 µM) | ≤ 0.006 | 0.39 (≈ 0.967 µM) | 0.05 to 1.56 (≈ 0.124 to 3.87 µM) | 0.05 (≈ 0.124 µM) | 1.56 (≈ 3.87 µM) | 0.39 (≈ 0.967 µM) | 0.05 to 6.25 (≈ 0.124 to 15.5 µM) | 3.13 (≈ 7.76 µM) | – | – | – | –
CN1Cc2csc3c(C(=O)O)c(=O)c4cc(F)c(N5CCO[C@H](CO)C5)c1c4n23 [Compound (M), 9,1-(Methylimino)methano-7-fluoro-8-[ (2S)-2-hydroxymethylmorpholino]-5-oxo-5H-thiazolo[3,2-a]quinoline-4-carboxylic acid] | 0.05 (≈ 0.119 µM) | 0.006 to 0.78 (≈ 0.0143 to 1.86 µM) | 0.013 (≈ 0.031 µM) | – | 0.05 to 3.13 (≈ 0.119 to 7.46 µM) | 0.2 (≈ 0.477 µM) | 3.13 (≈ 7.46 µM) | 1.56 (≈ 3.72 µM) | 0.1 to 25 (≈ 0.238 to 59.6 µM) | 3.13 (≈ 7.46 µM) | – | 0.78 (≈ 1.86 µM) | – | –
CN1Cc2csc3c(C(=O)O)c(=O)c4cc(F)c(N5CCO[C@@H](CO)C5)c1c4n23 [Compound (N), 9,1-(Methylimino)methano-7-fluoro-8-[(2R)-2-hydroxymethylmorpholino]-5-oxo-5H-thiazolo[3,2-a]quinoline-4-caboxylic acid] | 0.05 (≈ 0.119 µM) | 0.006 to 0.78 (≈ 0.0143 to 1.86 µM) | 0.013 (≈ 0.031 µM) | – | 0.05 to 3.13 (≈ 0.119 to 7.46 µM) | 0.2 (≈ 0.477 µM) | 3.13 (≈ 7.46 µM) | 1.56 (≈ 3.72 µM) | 0.1 to 25 (≈ 0.238 to 59.6 µM) | – | – | 0.78 (≈ 1.86 µM) | – | 6.25 (≈ 14.9 µM)
COC[C@@H]1CN(c2c(F)cc3c(=O)c(C(=O)O)c4scc5n4c3c2N(C)C5)CCO1 [Compound (O), 9,1-(Methylimino)methano-7-fluoro-8-[(2S)-2-methoxymethylmorpholino)-5-oxo-5H-thiazolo[3,2-a]quinoline-4-carboxylic acid] | 0.05 (≈ 0.115 µM) | 0.006 to 0.78 (≈ 0.0138 to 1.8 µM) | 0.013 (≈ 0.03 µM) | – | 0.05 to 3.13 (≈ 0.115 to 7.22 µM) | 0.2 (≈ 0.461 µM) | 3.13 (≈ 7.22 µM) | 3.13 (≈ 7.22 µM) | 0.1 to 12.5 (≈ 0.231 to 28.8 µM) | – | – | 0.78 (≈ 1.8 µM) | – | 6.25 (≈ 14.4 µM)
COC[C@H]1CN(c2c(F)cc3c(=O)c(C(=O)O)c4scc5n4c3c2N(C)C5)CCO1 [Compound (P), 9,1-(Methylimino)methano-7-fluoro-8-[(2R)-2-methoxymethylmorpholino)-5-oxo-5H-thiazolo[3,2-a]quinoline-4-carboxylic acid] | 0.05 (≈ 0.115 µM) | 0.006 to 0.78 (≈ 0.0138 to 1.8 µM) | 0.013 (≈ 0.03 µM) | – | 0.1 to 6.25 (≈ 0.231 to 14.4 µM) | 0.2 (≈ 0.461 µM) | – | 3.13 (≈ 7.22 µM) | 0.2 to 12.5 (≈ 0.461 to 28.8 µM) | 12.5 (≈ 28.8 µM) | – | 0.78 (≈ 1.8 µM) | 6.25 (≈ 14.4 µM) | –
CCOCC1CN(c2c(F)cc3c(=O)c(C(=O)O)c4scc5n4c3c2N(C)C5)CCO1 (centres unmarked) [Compound (Q), 9,1-(Methylimino)methano-7-fluoro-8-(2-ethoxymethylmorpholino)-5-oxo-5H-thiazolo[3,2-a]quinoline-4-carboxylic acid] | 0.1 (≈ 0.223 µM) | 0.006 to 0.78 (≈ 0.0134 to 1.74 µM) | 0.013 (≈ 0.0291 µM) | – | 0.05 to 6.25 (≈ 0.112 to 14 µM) | – | – | 3.13 (≈ 6.99 µM) | 0.2 to 25 (≈ 0.447 to 55.9 µM) | 12.5 (≈ 27.9 µM) | 0.39 (≈ 0.872 µM) | 0.78 (≈ 1.74 µM) | 6.25 (≈ 14 µM) | –

Reference: US5191079A, “Quinolinecarboxylic acid derivatives” (priority 1990, dated 1993)
